Data as given in patent US20240417370A1, “LIPIDS FOR USE IN LIPID NANOPARTICLE FORMULATIONS” (Acuitas Therapeutics, Inc., priority 2023, published 2024).

test system: human IgG in mouse serum; assay: Immunoglobulin G (IgG) mRNA in vivo evaluation using lipid nanoparticle compositions; parameters: species or system mice; conditions: LNP-formulated lipid, 0.3 mg mRNA/kg, tail vein injection, μg IgG/mL serum 24 hours after administration
Description: A lipid of structure (I), DSPC, cholesterol and PEG-lipid are solubilized in ethanol at a molar ratio of 50:10:38.5:1.5 or 47.5:10:40.7:1.8. Lipid nanoparticles (LNP) are prepared at a total lipid to mRNA weight ratio of approximately 10:1 to 40:1. Briefly, the mRNA is diluted to 0.2 mg/mL in 10 to 50 mM citrate buffer, pH 4 to 6 or 10 to 25 mM acetate buffer, pH 4 to 6. Syringe pumps are used to mix the ethanolic lipid solution with the mRNA aqueous solution at a ratio of about 1:5 to 1:3 (vol/vol) with total flow rates above 15 mL/min. The ethanol is then removed, and the external buffer replaced with PBS by dialysis. Finally, the lipid nanoparticles are filtered through a 0.2 µm pore sterile filter.
Studies are performed in 6-8-week-old CD-1/ICR mice (Envigo, Charles River, or Inotiv) according to guidelines established by an institutional animal care committee (ACC) and the Canadian Council on Animal Care (CCAC). Varying doses of mRNA-lipid nanoparticle are systemically administered by tail vein injection and animals euthanized at a specific time point (e.g., 24 hours) post-administration. The whole blood is collected, and the serum subsequentially separated by centrifuging the tubes of the whole blood at 2000×g for 10 minutes at 4° C. and stored at −80° C. until use for analysis.
For immunoglobulin G (IgG) ELISA (Life Diagnostics Human IgG ELISA kit), the serum samples are diluted at 100 to 20,000 folds with 1× diluent solution. 100 μL of diluted serum is dispensed into anti-human IgG coated 96-well plate in duplicate alongside human IgG standards and incubated in a plate shaker at 150 rpm at 25° C. for 45 minutes. The wells are washed 5 times with 1× wash solution using a plate washer (400 μL/well). 100 μL of HRP conjugate is added into each well and incubated in a plate shaker at the same condition above. The wells are washed 5 times again with 1× wash solution using a plate washer (400 μL/well). 100 μL of TMB reagent is added into each well and incubated in a plate shaker at the same condition above. The reaction is stopped by adding 100 μL of Stop solution to each well. The absorbance is read at 450 nm (A450) with a microplate reader. The amount of human IgG in mouse serum is determined by plotting A450 values for the assay standard against human IgG concentration.
Representative compounds of the disclosure shown in Table 2 were formulated using the following molar ratio: 50% cationic lipid/10% distearoylphosphatidylcholine (DSPC)/38.5% Cholesterol/1.5% PEG lipid 2-[2-(ω-methoxy(polyethyleneglycol2000)ethoxy]-N,N-ditetradecylacetamide) or 47.5% cationic lipid/10% DSPC/40.7% Cholesterol/1.8% PEG lipid. Relative activity was determined by measuring luciferase expression in the liver 4 hours following administration via tail vein injection as described in Example 1 or by measuring the amount of human IgG in mouse serum as described in example 2. The activity was compared at a dose of 1.0 or 0.5 or 0.3 mg mRNA/kg and expressed as ng luciferase/g liver measured 4 hours after administration, as described in Example 1 or as μg IgG/mL serum measured 24 hours after administration, as described in Example 2. Compound numbers in Table 2 refer to the compound numbers of Table 1.

SMILES | Serum IgG @ 0.3 mg/kg [µg/mL]
CCCCCCCCCCCCN(CCCCCC)C(=O)CCCCCCCN(CCCCCCCC(=O)N(CCCCCC)CCCCCCCCCCCC)[C@H]1CC[C@@H](O)CC1 [(1S, 4S) I-52] | 40.24 ± 18.53
C=CCCCCCCCCN(CCCCCCCCC=C)C(=O)CCCCCCCN(CCCCCCCC(=O)N(CCCCCCCCC=C)CCCCCCCCC=C)[C@H]1CC[C@@H](O)CC1 [(1S, 4S) I-53, 8,8′-(((1s,4s)-4-hydroxycyclohexyl)azanediyl)bis(N,N-di(dec-9-en-1-yl)octanamide)] | 81.56 ± 44.40
CCCCCCCCC(CCCCCCCC)N(CCCC)C(=O)CCCCCCCN(CCCCCCCC(=O)N(CCCC)C(CCCCCCCC)CCCCCCCC)[C@H]1CC[C@@H](O)CC1 [(1S, 4S) I-54, 8,8′-(((1s,4s)-4-hydroxycyclohexyl)azanediyl)bis(N-butyl-N-(heptadecan-9-yl)octanamide)] | 43.22 ± 12.97
CCCCCCCCCCCCN(CCCCCCCC)C(=O)CCCCCCCN(CCCCCCCC(=O)N(CCCCCCCCCC)CCCCCCCCCC)[C@H]1CC[C@@H](O)CC1 [(1S, 4S) I-55, N,N-didecyl-8-((8-(dodecyl(octyl)amino)-8-oxooctyl)((1s,4s)-4-hydroxycyclohexyl)amino)octanamide] | 72.2 ± 14.87
CCCCCCCCCCCCN(CCCCCC)C(=O)CCCCCCCN(CCCCCCCC(=O)N(CCCCCCCCCC)CCCCCCCCCC)[C@H]1CC[C@@H](O)CC1 [(1S, 4S) I-56, N,N-didecyl-8-((8-(dodecyl(hexyl)amino)-8-oxooctyl)((1s,4s)-4-hydroxycyclohexyl)amino)octanamide] | 52.9 ± 17.00
C=CCCCCCCCCN(CCCCCCCCC=C)C(=O)CCCCCCCN(CCCCCCCC(=O)N(CCCCCCCCCC)CCCCCCCCCC)[C@H]1CC[C@@H](O)CC1 [(1S, 4S) I-57, N,N-di(dec-9-en-1-yl)-8-((8-(didecylamino)-8-oxooctyl)((1s,4s)-4-hydroxycyclohexyl)amino)octanamide] | 84.4 ± 35.10
CCCCCCCCCCN(CCCCCCCCCC)C(=O)CCCCCCCN(CCCCCCCC(=O)NC(CCCCCCCCC)CCCCCCCCC)[C@H]1CC[C@@H](O)CC1 [(1S, 4S) I-58, N,N-didecyl-8-(((1s,4s)-4-hydroxycyclohexyl)(8-(nonadecan-10-ylamino)-8-oxooctyl)amino)octanamide] | 61.75 ± 11.64
CCCCCCCCCCN(CCCCCCCCCC)C(=O)CCCCCCCN(CCCCCCCC(=O)N(CCCC)C(CCCCCCCC)CCCCCCCC)[C@H]1CC[C@@H](O)CC1 [(1S, 4S) I-59, N-butyl-8-((8-(didecylamino)-8-oxooctyl)((1s,4s)-4-hydroxycyclohexyl)amino)-N-(heptadecan-9-yl)octanamide] | 84.23 ± 17.22
CCCCCCCCCCN(CCCCCCCCCC)C(=O)CCCCCCCCCN(CCCCCCCCCC(=O)N(CCCCCCCCCC)CCCCCCCCCC)[C@H]1CC[C@@H](O)CC1 [(1S, 4S) I-60, 10,10′-(((1s,4s)-4-hydroxycyclohexyl)azanediyl)bis(N,N-didecyldecanamide)] | 15.65 ± 5.31
CCCCCCCCCCCCN(CCCCCCCC)C(=O)CCCCCCCN(CCCCCCCC(=O)N(CCCCCCCC)CCCCCCCCCCCC)[C@H]1CC[C@@H](O)CC1 [(1S, 4S) I-62, 8,8′-(((1s,4s)-4-hydroxycyclohexyl)azanediyl)bis(N-dodecyl-N-octyloctanamide)] | 48.49 ± 8.83
CCCCCCCCCCN(CCCCCCCCN(CCCCCCCCN(CCCCCCCCCC)C(=O)CCCCCCCCC)[C@H]1CC[C@@H](O)CC1)C(=O)CCCCCCCCC [(1S, 4S) I-63, N,N′-((((1s,4s)-4-hydroxycyclohexyl)azanediyl)bis(octane-8,1-diyl))bis(N-decyldecanamide)] | 39.32 ± 8.99
CCCCCCCCCCN(CCCCCCCCCC)C(=O)CCCCCCCN(CCCCCCCC(=O)N(CCCCCCCCCC)CCCCCCCCCC)[C@H]1C[C@H](O)C[C@H](O)C1 [(1s, 3R, 5S) I-34, 8,8′-(((1s,3r,5s)-3,5-dihydroxycyclohexyl)azanediyl)bis(N,N-didecyloctanamide)] | 7.06 ± 4.68
CCCCCCCCCCN(CCCCCCCCCC)C(=O)CCCCCCCCCN(CCCCCC(=O)N(CCCCCCCCCC)CCCCCCCCCC)[C@H]1CC[C@@H](O)CC1 [(15, 4S) I-61, N,N-didecyl-10-((6-(didecylamino)-6-oxohexyl)((1s,4s)-4-hydroxycyclohexyl)amino)decanamide] | 40.66 ± 9.70
CCCCCCCCCCN(CCCCCCCCCC)C(=O)CCCCCCCN(CCCCCCCC(=O)N(CCCCCCCCCC)CCCCCCCCCC)CC1CCC(O)C1 (stereo not shown) [Compound I-4, 8,8′-(((3-hydroxycyclopentyl)methyl)azanediyl)bis(N,N-didecyloctanamide)] | 32.39 ± 3.12
CCCCCCCCCCN(CCCCCCCCCC)C(=O)CCCCCCCN(CCCCCCCC(=O)N(CCCCCCCCCC)CCCCCCCCCC)C1CCC(O)CC1 (stereo not shown) [Compound I-9, 8,8′-((4-hydroxycyclohexyl)azanediyl)bis(N,N-didecyloctanamide)] | 35.77 ± 4.50
CCCCCCCCCCN(CCCCCCCCCC)C(=O)CCCCCCCN(CCCCCCCC(=O)N(CCCCCCCCCC)CCCCCCCCCC)C1CC2(CC(O)C2)C1 (stereo not shown) [Compound I-36, 8,8′-((6-hydroxyspiro[3.3]heptan-2-yl)azanediyl)bis(N,N-didecyloctanamide)] | 25.76 ± 8.65

same assay, conditions: LNP-formulated lipid, 1.0 mg mRNA/kg, tail vein injection, μg IgG/mL serum 24 hours after administration

SMILES | Serum IgG @ 1.0 mg/kg [µg/mL]
CCCCCCCCCCN(CCCCCCCCCC)C(=O)CCCCCCCN(CCCCCCCC(=O)N(CCCCCCCCCC)CCCCCCCCCC)[C@H]1C[C@H](O)C[C@H](O)C1 [(1s, 3R, 5S) I-34, 8,8′-(((1s,3r,5s)-3,5-dihydroxycyclohexyl)azanediyl)bis(N,N-didecyloctanamide)] | 57.07 ± 24.86
CCCCCCCCCCN(CCCCCCCCCC)C(=O)CCCCCCCN(CCCCCCCC(=O)N(CCCCCCCCCC)CCCCCCCCCC)CC1CCC(O)C1 (stereo not shown) [Compound I-4, 8,8′-(((3-hydroxycyclopentyl)methyl)azanediyl)bis(N,N-didecyloctanamide)] | 155.20 ± 15.34
CCCCCCCCCCN(CCCCCCCCCC)C(=O)CCCCCCCN(CCCCCCCC(=O)N(CCCCCCCCCC)CCCCCCCCCC)C1CC2(CC(O)C2)C1 (stereo not shown) [Compound I-36, 8,8′-((6-hydroxyspiro[3.3]heptan-2-yl)azanediyl)bis(N,N-didecyloctanamide)] | 171.89 ± 45.93
